Among the data in DBAASP are MIC values, retold here.

As a reminder, the MIC is the lowest concentration that inhibits growth of the organism. A low value points to a more susceptible organism.

Common to all, as to assay: ≥ marks a high value that may be exact or a test limit, other limits are often not marked, values filed in µg/mL are converted to µM
In assay [1] the test system is Staphylococcus aureus ATCC 25923.
The test system of assay [2] is Escherichia coli ATCC 25922.
Assay [3] relates to Pseudomonas aeruginosa ATCC 27853.
Another assay deals with Staphylococcus aureus.
The subject of the next assay is Escherichia coli.

Converted amounts (≈) assume the structure as drawn. “And” between values parts separate entries of the source, which are not always exact repeats. Equal values may be shown once.

As to `CC(C)[C@H](NC(=O)[C@H](CC(=O)O)NC(=O)[C@H](CO)NC(=O)[C@H](CCCCN)NC(=O)CNC(=O)[C@H](CO)NC(=O)[C@H](CO)NC(=O)[C@H](Cc1cnc[nH]1)NC(=O)[C@H](CCC(N)=O)NC(=O)[C@@H](N)CCC(=O)O)C(N)=O` [EQHSSGKSDV], the MIC in assay [1], in assay [2] and in assay [3] was greater than 100 µM in each case.
For `CC[C@H](C)[C@H](NC(=O)[C@H](CCSC)NC(=O)[C@H](CCCN=C(N)N)NC(=O)CNC(=O)[C@H](C)NC(=O)[C@H](Cc1cnc[nH]1)NC(=O)[C@H](Cc1ccccc1)NC(=O)[C@H](CC(C)C)NC(=O)CNC(=O)[C@H](CCCCN)NC(=O)[C@@H](NC(=O)[C@@H](NC(=O)[C@H](Cc1cnc[nH]1)NC(=O)[C@H](Cc1ccccc1)NC(=O)[C@H](Cc1ccccc1)NC(=O)[C@@H](N)Cc1ccccc1)[C@@H](C)CC)[C@@H](C)CC)C(=O)N[C@@H](Cc1cnc[nH]1)C(=O)NCC(=O)N[C@@H](CC(C)C)C(=O)N[C@H](C(=O)O)C(C)C` [FFFHIIKGLFHAGRMIHGLV], the minimal inhibitory concentration (MIC) in assay [3] turned out to be 32 µM (≈ 74.9 µg/mL).
`CC[C@H](C)[C@H](NC(=O)[C@H](CCCCN)NC(=O)[C@@H]1CCCN1C(=O)[C@H](CC(C)C)NC(=O)[C@H](Cc1ccccc1)NC(=O)[C@H](CC(N)=O)NC(=O)[C@H](C)NC(=O)[C@H](C)NC(=O)[C@@H]1CSSC[C@H](NC(=O)[C@H](CC(C)C)NC(=O)CNC(=O)[C@H](C)NC(=O)[C@H](CC(C)C)NC(=O)[C@H](CC(C)C)NC(=O)[C@@H]2CCCN2C(=O)[C@H](CC(C)C)NC(=O)[C@@H](N)Cc2ccccc2)C(=O)N[C@@H](CCCCN)C(=O)N[C@@H]([C@@H](C)CC)C(=O)N[C@@H]([C@@H](C)O)C(=O)N[C@@H](CCCN=C(N)N)C(=O)N[C@@H](CCCCN)C(=O)N1)C(=O)N[C@@H](Cc1ccccc1)C(=O)O` [FLPLLAGLCKITRKCAANFLPKIF]: the MIC in the assay on Staphylococcus aureus is 1.5 µM (≈ 4.01 µg/mL); in the assay with Escherichia coli, 7 µM (≈ 18.7 µg/mL).
On to `CC[C@H](C)[C@H](NC(=O)[C@H](CC(C)C)NC(=O)[C@H](C)NC(=O)[C@H](Cc1ccccc1)NC(=O)[C@H](Cc1ccccc1)NC(=O)CN)C(=O)N[C@@H](C)C(=O)N[C@@H](CCCCN)C(=O)N[C@H](C(=O)N[C@H](C(=O)N[C@@H](CO)C(=O)N[C@@H](CO)C(=O)N1CCC[C@H]1C(=O)N[C@@H](CC(C)C)C(=O)N[C@@H](Cc1ccccc1)C(=O)N[C@@H](CCCCN)C(=O)N[C@H](C(=O)N[C@@H](CC(C)C)C(N)=O)[C@@H](C)O)[C@@H](C)CC)[C@@H](C)CC` [GFFALIAKIISSPLFKTL], for which the minimum inhibitory concentration (MIC) in the assay on Escherichia coli is 20.3 µM (≈ 40 µg/mL).
For the compound `CC[C@H](C)[C@H](NC(=O)[C@H](CO)NC(=O)[C@H](C)NC(=O)[C@H](CC(C)C)NC(=O)CNC(=O)[C@H](C)NC(=O)[C@H](CCCCN)NC(=O)[C@H](C)NC(=O)[C@H](Cc1ccccc1)NC(=O)[C@H](CCCCN)NC(=O)[C@H](CCCCN)NC(=O)[C@H](CC(C)C)NC(=O)CNC(=O)[C@H](CCC(=O)O)NC(=O)[C@H](C)NC(=O)[C@H](C)NC(=O)[C@@H](NC(=O)[C@@H](NC(=O)[C@H](Cc1c[nH]c2ccccc12)NC(=O)[C@H](Cc1ccccc1)NC(=O)CN)[C@@H](C)O)[C@@H](C)O)C(=O)N[C@@H](CC(C)C)C(=O)N[C@@H](CC(N)=O)C(=O)N1CCC[C@H]1C(=O)N[C@@H](CCCCN)C(=O)O` [GFWTTAAEGLKKFAKAGLASILNPK], the values for the MIC in the assay on Staphylococcus aureus and in the assay on Escherichia coli were greater than 80 µM and 80 µM (≈ 210 µg/mL), respectively.
With `CC[C@H](C)[C@H](NC(=O)CN)C(=O)N[C@@H](CCCN=C(N)N)C(=O)N[C@@H](CC(=O)O)C(=O)N[C@H](C(=O)N[C@@H](CC(C)C)C(=O)N[C@@H](CCCCN)C(=O)NCC(=O)N[C@@H](C)C(=O)N[C@@H](C)C(=O)N[C@@H](CCCCN)C(=O)N[C@@H](C)C(=O)N[C@@H](Cc1ccccc1)C(=O)N[C@H](C(=O)N[C@@H](CCCCN)C(=O)N[C@H](C(=O)N[C@H](C(=O)N[C@@H](C)C(=O)NCC(=O)N[C@@H](Cc1cnc[nH]1)C(=O)N[C@H](C(=O)N[C@@H](C)C(=O)N[C@@H](CC(N)=O)C(N)=O)[C@@H](C)CC)C(C)C)[C@@H](C)O)C(C)C)C(C)C` [GIRDVLKGAAKAFVKTVAGHIAN], the minimal inhibitory concentration (MIC) in assay [2] was found to be 4 µM (≈ 9.34 µg/mL). In other words, the single-digit micromolar range.
With `CC[C@H](C)[C@H](NC(=O)[C@H](CCCCN)NC(=O)[C@H](CCCCN)NC(=O)[C@@H](NC(=O)[C@@H](NC(=O)[C@H](CC(=O)O)NC(=O)[C@H](Cc1ccccc1)NC(=O)[C@H](CC(C)C)NC(=O)CN)[C@@H](C)CC)[C@@H](C)CC)C(=O)N[C@@H](Cc1c[nH]c2ccccc12)C(=O)N[C@@H](CCC(=O)O)C(=O)N[C@@H](CO)C(=O)N[C@@H](Cc1ccccc1)C(N)=O` [GLFDIIKKIWESF], the minimum inhibitory concentration (MIC) in assay [2] and in assay [3] was greater than 125 µM throughout.
Turning to `CC(C)C[C@H](NC(=O)[C@H](CC(C)C)NC(=O)[C@@H](NC(=O)[C@H](CCCCN)NC(=O)[C@H](C)NC(=O)[C@H](CCCN=C(N)N)NC(=O)[C@H](CCCCN)NC(=O)[C@H](CC(C)C)NC(=O)[C@H](CC(C)C)NC(=O)CN)[C@@H](C)O)C(N)=O` [GLLKRAKTLL], the MIC in assay [1] and in assay [2] was greater than 36.9 µM each time.
Turning to `CC[C@H](C)[C@H](NC(=O)[C@H](CCCN=C(N)N)NC(=O)[C@H](CO)NC(=O)[C@H](CC(C)C)NC(=O)[C@H](CC(C)C)NC(=O)CN)C(=O)N[C@@H](CCCCN)C(=O)N[C@H](C(=O)N[C@@H](CC(C)C)C(=O)N[C@@H](CC(C)C)C(N)=O)[C@@H](C)O` [GLLSRIKTLL], the minimal inhibitory concentration (MIC) in assay [2] came out at 100 µM (≈ 111 µg/mL).
Same read-out and setting: in the case of `CC[C@H](C)[C@H](NC(=O)[C@H](C)NC(=O)CNC(=O)[C@H](C)NC(=O)[C@H](CCCCN)NC(=O)[C@H](CO)NC(=O)[C@H](C)NC(=O)[C@H](CCSC)NC(=O)CN)C(=O)N[C@@H](C)C(=O)NCC(=O)N[C@@H](CCCCN)C(=O)N[C@H](C(=O)N[C@@H](C)C(=O)N[C@@H](CCCCN)C(=O)N[C@H](C(=O)N[C@@H](C)C(=O)N[C@@H](Cc1c[nH]c2ccccc12)C(=O)N[C@@H](CCCCN)C(=O)N[C@@H](C)C(=O)N[C@@H](CC(C)C)C(N)=O)C(C)C)[C@@H](C)CC` [GMASKAGAIAGKIAKVAWKAL] it was 8.87 µM (≈ 18.1 µg/mL); in that of `CC[C@H](C)[C@H](N)C(=O)N[C@H](C(=O)N[C@@H](CCCCN)C(=O)N[C@@H](CCCCN)C(=O)N[C@@H](Cc1ccccc1)C(=O)N[C@@H](CC(C)C)C(=O)N[C@@H](Cc1cnc[nH]1)C(=O)N[C@@H](CO)C(=O)N[C@H](C(=O)N[C@@H](Cc1c[nH]c2ccccc12)C(=O)N[C@@H](CCCCN)C(=O)N[C@@H](Cc1ccccc1)C(=O)NCC(=O)N[C@@H](CCCCN)C(=O)N[C@@H](C)C(=O)N[C@@H](Cc1ccccc1)C(=O)N[C@H](C(=O)NCC(=O)N[C@@H](CCC(=O)O)C(=O)N[C@H](C(=O)N[C@@H](CCSC)C(=O)N[C@@H](CC(N)=O)C(=O)N[C@H](C(=O)O)[C@@H](C)CC)[C@@H](C)CC)C(C)C)[C@@H](C)CC)[C@@H](C)CC` [IIKKFLHSIWKFGKAFVGEIMNI], 2 µM (≈ 5.44 µg/mL).
Regarding `CC[C@H](C)[C@H](NC(=O)[C@H](Cc1ccccc1)NC(=O)[C@H](CCCCN)NC(=O)[C@H](CC(C)C)NC(=O)[C@H](CC(C)C)NC(=O)[C@@H](N)CCCCN)C(=O)N[C@@H](CCCCN)C(=O)N[C@H](C(=O)N[C@@H](CC(C)C)C(=O)N[C@@H](CC(C)C)C(N)=O)[C@@H](C)O` [KLLKFIKTLL], the MIC in assay [1] is 5.75 µM (≈ 6.99 µg/mL); in assay [2], 2.47 µM (≈ 3 µg/mL).
Turning to `CC[C@H](C)[C@H](NC(=O)CNC(=O)[C@H](CO)NC(=O)[C@H](CCCN=C(N)N)NC(=O)[C@@H](NC(=O)CNC(=O)[C@H](Cc1c[nH]c2ccccc12)NC(=O)[C@@H](N)CC(C)C)[C@@H](C)O)C(=O)N[C@@H](CCC(N)=O)C(=O)N1CCC[C@H]1C(N)=O` [LWGTRSGIQP], the MIC in assay [1], in assay [2] and in assay [3] was greater than 100 µM in each case.
Take `CC[C@H](C)[C@H](NC(=O)[C@H](Cc1cnc[nH]1)NC(=O)[C@H](CCCN=C(N)N)NC(=O)[C@H](Cc1c[nH]c2ccccc12)NC(=O)[C@@H](NC(=O)[C@H](CCCN=C(N)N)NC(=O)[C@H](CCCCN)NC(=O)[C@H](C)NC(=O)CNC(=O)[C@H](CCCN=C(N)N)NC(=O)[C@H](CCSC)NC(=O)[C@H](C)NC(=O)[C@@H](N)CC(N)=O)C(C)C)C(N)=O` [NAMRGAKRVWRHI]: the MIC in assay [2] was 44.3 µM and 62.7 µM.
Take `CC(C)[C@H](NC(=O)[C@H](C)NC(=O)[C@@H](N)CCC(N)=O)C(=O)N[C@@H](CCC(=O)O)C(=O)N[C@@H](C)C(=O)N[C@@H](CCC(N)=O)C(=O)N[C@@H](CCCCN)C(=O)O` [QAVEAQK]: the MIC was 809 µM (≈ 625 µg/mL) in assay [1] and 1620 µM (≈ 1250 µg/mL) in assay [2].
`CC(C)[C@H](N)C(=O)N[C@H]1CSSC[C@@H](C(=O)N[C@H](C(=O)NCC(=O)N[C@@H](CCCN=C(N)N)C(=O)O)C(C)C)NC(=O)[C@H](C(C)C)NC(=O)[C@@H]2CSSC[C@H](NC(=O)[C@H](Cc3ccc(O)cc3)NC1=O)C(=O)N[C@@H](CCCN=C(N)N)C(=O)N[C@@H](CCCN=C(N)N)C(=O)N[C@@H](CCCN=C(N)N)C(=O)N[C@@H](Cc1ccccc1)C(=O)N2` [VCYCRRRFCVCVGR] showed a minimal inhibitory concentration (MIC) in the assay with Escherichia coli of 0.349 µM (≈ 0.599 µg/mL).
In the case of `CC(C)C[C@H](NC(=O)[C@H](Cc1ccccc1)NC(=O)[C@@H]1CCCN1C(=O)[C@H](Cc1c[nH]c2ccccc12)NC(=O)[C@H](Cc1ccc(O)cc1)NC(=O)[C@H](Cc1ccc(O)cc1)NC(=O)[C@@H]1CCCN1C(=O)[C@H](Cc1ccccc1)NC(=O)[C@H](CCCN=C(N)N)NC(=O)[C@H](CCCN=C(N)N)NC(=O)[C@@H](N)C(C)C)C(=O)N[C@@H](CCCN=C(N)N)C(=O)N[C@@H](CCCN=C(N)N)C(N)=O` [VRRFPYYWPFLRR], in assay [2], the MIC was 32 µM (≈ 59.4 µg/mL).
Regarding `NC(=O)[C@H](Cc1c[nH]c2ccccc12)NC(=O)[C@H](CCCN=C(N)N)NC(=O)[C@H](CCCN=C(N)N)NC(=O)[C@@H](N)Cc1c[nH]c2ccccc12` [WRRW], the MIC in assay [1] is 285 µM (≈ 200 µg/mL); in assay [2] it was greater than 285 µM.
For `NC(=O)[C@H](Cc1ccc(O)cc1)NC(=O)[C@H](CCCN=C(N)N)NC(=O)[C@H](Cc1c[nH]c2ccccc12)NC(=O)[C@H](CCCN=C(N)N)NC(=O)[C@@H](N)Cc1c[nH]c2ccccc12` [WRWRY], in that order: 57.7 µM (≈ 49.9 µg/mL) and 115 µM (≈ 99.9 µg/mL).
